According to ChEMBL document CHEMBL1143991, “The 2alpha-(3-hydroxypropyl) group as an active motif in vitamin D3 analogues as agonists of the mutant vitamin D receptor (Arg274Leu)” (Bioorg Med Chem, 2008):
Active and inactive are the calls of the source. The calls are words filed in the database; no cut-off is given here.

The compounds below were run against T1, Vitamin D3 receptor (Homo sapiens) (UniProt P11473) (assay: Enhancement of VDR mediated transcriptional activity in human MCF7 cells).
T1 sequence (whole entry): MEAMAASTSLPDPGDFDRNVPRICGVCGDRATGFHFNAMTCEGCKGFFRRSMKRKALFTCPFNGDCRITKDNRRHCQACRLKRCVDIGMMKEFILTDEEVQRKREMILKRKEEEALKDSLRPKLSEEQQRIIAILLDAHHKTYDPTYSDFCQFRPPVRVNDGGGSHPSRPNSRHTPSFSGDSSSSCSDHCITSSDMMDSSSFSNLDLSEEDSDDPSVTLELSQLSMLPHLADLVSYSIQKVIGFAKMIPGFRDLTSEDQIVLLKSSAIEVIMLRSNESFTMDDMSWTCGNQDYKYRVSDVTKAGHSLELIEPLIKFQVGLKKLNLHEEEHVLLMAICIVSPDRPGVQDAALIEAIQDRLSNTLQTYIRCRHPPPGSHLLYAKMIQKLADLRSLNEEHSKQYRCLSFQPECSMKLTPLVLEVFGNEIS
Type: cell-based

SMILES	Activity
C=C1/C(=C\C=C2/CCC[C@]3(C)[C@@H]([C@H](C)CCCC(C)(C)O)CC[C@@H]23)C[C@@H](O)[C@H](CCCO)[C@H]1CO	Active
C=C1/C(=C\C=C2/CCC[C@]3(C)[C@@H]([C@H](C)CCCC(C)(C)O)CC[C@@H]23)C[C@@H](O)[C@H](CCCO)[C@@H]1CO	Active
C=C1/C(=C\C=C2/CCC[C@]3(C)[C@@H]([C@H](C)CCCC(C)(C)O)CC[C@@H]23)C[C@@H](O)[C@H](CCCO)[C@@H]1O	Active
C=C1C[C@@H](CCCO)[C@H](O)C/C1=C/C=C1\CCC[C@]2(C)[C@@H]([C@H](C)CCCC(C)(C)O)CC[C@@H]12	Active
